PubChem BioAssay AID1918941 (Molecular Pharmacology Branch, DTP, NCI, 2023)

Test system: SW 1271 complex spheroids, viability
Assay: Anticancer human tumor SW 1271 cell line growth inhibition [LSD1];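 also: spheroids exposed to agents for 7 days before luminescence read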;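 as to viability, T/C: 100% = DMSO vehicle control viability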
Conditions: for IC50: curve of first compound; for viability, T/C: stronger effect = lower value
Outline: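 Multicellular complex spheroids of tumor cells with human endothelial cells (HUVEC) and mesenchymal stem cells; the LSD1 inhibitor iadademstat was combined with standard-of-care or investigational agents. Top concentration at or near clinical Cmax, half-log dilutions; final DMSO ≤0.25%.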

[1] = second compound 0.1 µM, first compound 0.0316 µM
[2] = second compound 0.1 µM, first compound 0.1 µM
[3] = second compound 0.1 µM, first compound 0.316 µM
[4] = second compound 0.1 µM, first compound 1 µM
[5] = second compound 0.1 µM, first compound 3.16 µM
[6] = second compound 0.1 µM, first compound 10 µM
[7] = second compound 0.316 µM, first compound 0.0316 µM
[8] = second compound 0.316 µM, first compound 0.1 µM
[9] = second compound 0.316 µM, first compound 0.316 µM
[10] = second compound 0.316 µM, first compound 1 µM
[11] = second compound 0.316 µM, first compound 3.16 µM
[12] = second compound 0.316 µM, first compound 10 µM
[13] = second compound 1 µM, first compound 0.0316 µM
[14] = second compound 1 µM, first compound 0.1 µM
[15] = second compound 1 µM, first compound 0.316 µM
[16] = second compound 1 µM, first compound 1 µM
[17] = second compound 1 µM, first compound 3.16 µM
[18] = second compound 1 µM, first compound 10 µM
[19] = second compound 3.16 µM, first compound 0.0316 µM
[20] = second compound 3.16 µM, first compound 0.1 µM
[21] = second compound 3.16 µM, first compound 0.316 µM
[22] = second compound 3.16 µM, first compound 1 µM
[23] = second compound 3.16 µM, first compound 3.16 µM
[24] = second compound 3.16 µM, first compound 10 µM
[25] = second compound 10 µM, first compound 0.0316 µM
[26] = second compound 10 µM, first compound 0.1 µM
[27] = second compound 10 µM, first compound 0.316 µM
[28] = second compound 10 µM, first compound 1 µM
[29] = second compound 10 µM, first compound 3.16 µM
[30] = second compound 10 µM, first compound 10 µM

## CC(C)c1c(-c2ccccc2)nc2c(C#N)c[nH]n2c1=O + NC1CCC(NC2CC2c2ccccc2)CC1
Second compound 0.1 µM
  IC50: > 10000 nM
Second compound 0.316 µM
  IC50: > 10000 nM
Second compound 1 µM
  IC50: > 10000 nM
Second compound 3.16 µM
  IC50: > 10000 nM
Second compound 10 µM
  IC50: > 10000 nM
[1]
  viability, T/C: 85.7%
[2]
  viability, T/C: 80.3%
[3]
  viability, T/C: 79.1%
[4]
  viability, T/C: 82.8%
[5]
  viability, T/C: 71.1%
[6]
  viability, T/C: 69.4%
[7]
  viability, T/C: 75.2%
[8]
  viability, T/C: 89.2%
[9]
  viability, T/C: 77.9%
[10]
  viability, T/C: 74.2%
[11]
  viability, T/C: 68.9%
[12]
  viability, T/C: 54.7%
[13]
  viability, T/C: 74.1%
[14]
  viability, T/C: 74.8%
[15]
  viability, T/C: 75.5%
[16]
  viability, T/C: 80.1%
[17]
  viability, T/C: 68.8%
[18]
  viability, T/C: 59.4%
[19]
  viability, T/C: 76.6%
[20]
  viability, T/C: 73.1%
[21]
  viability, T/C: 71.5%
[22]
  viability, T/C: 68.8%
[23]
  viability, T/C: 71.9%
[24]
  viability, T/C: 64.2%
[25]
  viability, T/C: 66.7%
[26]
  viability, T/C: 60.5%
[27]
  viability, T/C: 70.1%
[28]
  viability, T/C: 65.5%
[29]
  viability, T/C: 65.8%
[30]
  viability, T/C: 46.5%

## CC1COCCN1c1cc(-c2ccnn2C)c2ccnc(-c3ccn[nH]3)c2n1 (stereo not given) + NC1CCC(NC2CC2c2ccccc2)CC1
Second compound 0.1 µM
  IC50: 59.5 nM
Second compound 0.316 µM
  IC50: 103 nM
Second compound 1 µM
  IC50: 55.3 nM
Second compound 3.16 µM
  IC50: 55.4 nM
Second compound 10 µM
  IC50: 47.3 nM
Second compound 0.1 µM, first compound 0.00316 µM
  viability, T/C: 59.3%
Second compound 0.1 µM, first compound 0.01 µM
  viability, T/C: 76.7%
[1]
  viability, T/C: 56.3%
[2]
  viability, T/C: 42.7%
[3]
  viability, T/C: 42.2%
[4]
  viability, T/C: 29.8%
Second compound 0.316 µM, first compound 0.00316 µM
  viability, T/C: 71.4%
Second compound 0.316 µM, first compound 0.01 µM
  viability, T/C: 71.2%
[7]
  viability, T/C: 58.2%
[8]
  viability, T/C: 42.7%
[9]
  viability, T/C: 48.8%
[10]
  viability, T/C: 28.6%
Second compound 1 µM, first compound 0.00316 µM
  viability, T/C: 68.5%
Second compound 1 µM, first compound 0.01 µM
  viability, T/C: 62%
[13]
  viability, T/C: 56.2%
[14]
  viability, T/C: 39.6%
[15]
  viability, T/C: 44.3%
[16]
  viability, T/C: 30.3%
Second compound 3.16 µM, first compound 0.00316 µM
  viability, T/C: 68.4%
Second compound 3.16 µM, first compound 0.01 µM
  viability, T/C: 56.4%
[19]
  viability, T/C: 55.8%
[20]
  viability, T/C: 44.8%
[21]
  viability, T/C: 42%
[22]
  viability, T/C: 31.4%
Second compound 10 µM, first compound 0.00316 µM
  viability, T/C: 78.1%
Second compound 10 µM, first compound 0.01 µM
  viability, T/C: 66.9%
[25]
  viability, T/C: 53.1%
[26]
  viability, T/C: 41.8%
[27]
  viability, T/C: 38.5%
[28]
  viability, T/C: 29.9%

## COc1ccc([C@@H](O)c2cc(-c3ncnc4cc(N5CCOCC5)ccc34)c(F)cc2Cl)nn1 + NC1CCC(NC2CC2c2ccccc2)CC1
Second compound 0.1 µM
  IC50: 811 nM
Second compound 0.316 µM
  IC50: 542 nM
Second compound 1 µM
  IC50: 608 nM
Second compound 3.16 µM
  IC50: 836 nM
Second compound 10 µM
  IC50: 436 nM
[1]
  viability, T/C: 92%
[2]
  viability, T/C: 84.7%
[3]
  viability, T/C: 62.1%
[4]
  viability, T/C: 49.4%
[5]
  viability, T/C: 29.2%
[6]
  viability, T/C: 21%
[7]
  viability, T/C: 82.1%
[8]
  viability, T/C: 70.6%
[9]
  viability, T/C: 58.2%
[10]
  viability, T/C: 40.8%
[11]
  viability, T/C: 30.3%
[12]
  viability, T/C: 21.4%
[13]
  viability, T/C: 75%
[14]
  viability, T/C: 65.3%
[15]
  viability, T/C: 65.2%
[16]
  viability, T/C: 38.7%
[17]
  viability, T/C: 27.5%
[18]
  viability, T/C: 21.6%
[19]
  viability, T/C: 68%
[20]
  viability, T/C: 65.2%
[21]
  viability, T/C: 66.2%
[22]
  viability, T/C: 46.3%
[23]
  viability, T/C: 25.5%
[24]
  viability, T/C: 16.7%
[25]
  viability, T/C: 89.4%
[26]
  viability, T/C: 60%
[27]
  viability, T/C: 50.4%
[28]
  viability, T/C: 49%
[29]
  viability, T/C: 26.6%
[30]
  viability, T/C: 14.9%
